Data as given in patent US10722514B2 (FLX Bio, Inc., priority 2017, dated 2020).
Structures can show the parent of a compound that is named as a salt. Where two headings read alike, the source gives them in different places.

Molecular target: T1, recombinant full-length USP7 (Homo sapiens, UniProt Q93009)
T1 construct: A 25 μl reaction volume containing recombinant full-length USP7 (62 pM)
Test: USP7-mediated ubiquitin-rhodamine cleavage assay
Format: biochemical
Details: recombinant full-length USP7 62 pM, ubiquitin-rhodamine 100 nM, 1 hour reaction at room temperature
Method in brief: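 Enzyme 62 pM; HEPES pH 7.3/150 mM NaCl/1 mM TCEP/125 μg/ml BSA; 1% DMSO; 30 min cpd preinc RT; Ub-rhodamine 100 nM, 1 h RT, dark; acetic acid stop; fluorescence; IC50 4-param fit.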

[1] = 30-minute incubation with compound, read-out: Potency: USP7 IC50
[2] = 30-minute pre-incubation, read-out: Potency (USP7 IC50)

T1 sequence (Q93009 whole entry): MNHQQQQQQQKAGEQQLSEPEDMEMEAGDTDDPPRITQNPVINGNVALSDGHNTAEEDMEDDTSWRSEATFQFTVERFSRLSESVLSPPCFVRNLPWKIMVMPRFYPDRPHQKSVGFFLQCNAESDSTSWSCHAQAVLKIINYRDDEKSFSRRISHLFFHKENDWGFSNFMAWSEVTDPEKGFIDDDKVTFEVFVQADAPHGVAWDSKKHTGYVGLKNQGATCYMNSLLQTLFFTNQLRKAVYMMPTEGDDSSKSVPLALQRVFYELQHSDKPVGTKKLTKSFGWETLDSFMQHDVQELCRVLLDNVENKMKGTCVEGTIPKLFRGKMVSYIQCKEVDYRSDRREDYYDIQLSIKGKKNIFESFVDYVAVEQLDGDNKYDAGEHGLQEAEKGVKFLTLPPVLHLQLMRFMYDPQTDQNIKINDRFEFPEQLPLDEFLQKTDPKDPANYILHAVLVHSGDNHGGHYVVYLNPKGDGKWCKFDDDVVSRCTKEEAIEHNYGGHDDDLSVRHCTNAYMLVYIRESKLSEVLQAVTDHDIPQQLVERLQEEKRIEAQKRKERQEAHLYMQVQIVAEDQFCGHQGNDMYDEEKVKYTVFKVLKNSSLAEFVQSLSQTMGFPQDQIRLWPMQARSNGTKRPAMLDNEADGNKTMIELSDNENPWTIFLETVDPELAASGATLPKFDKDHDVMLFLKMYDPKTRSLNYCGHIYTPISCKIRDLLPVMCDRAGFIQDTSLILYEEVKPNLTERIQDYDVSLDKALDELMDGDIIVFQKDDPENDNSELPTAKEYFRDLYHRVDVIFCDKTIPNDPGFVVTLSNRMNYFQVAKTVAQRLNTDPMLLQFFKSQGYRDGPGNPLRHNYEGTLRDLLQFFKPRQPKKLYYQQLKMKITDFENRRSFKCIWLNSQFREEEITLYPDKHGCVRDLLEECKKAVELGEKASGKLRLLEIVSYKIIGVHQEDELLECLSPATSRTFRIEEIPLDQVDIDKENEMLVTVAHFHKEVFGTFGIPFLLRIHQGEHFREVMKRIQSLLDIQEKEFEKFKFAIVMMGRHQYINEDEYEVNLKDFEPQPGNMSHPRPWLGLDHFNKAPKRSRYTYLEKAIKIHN

Row | Structure (SMILES) | IC50 [1] [nM] | IC50 [2] [nM]
1 | Cc1cc(Cl)cc(-c2ccnc3cc(Cn4c(=O)cc[nH]c4=O)sc23)c1OC1CCNCC1 [Example 184, 3-((7-(5-Chloro-3-methyl-2-(piperidin-4-yloxy)phenyl)thieno[3,2-b]pyridin-2-yl)methyl)pyrimidine-2,4(1H,3H)-dione] | < 1000 | 
2 | Cc1cc(Cl)cc(-c2ccnc3cc(Cn4c(=O)ccn(CC(F)(F)F)c4=O)sc23)c1OC1CN2CCC1CC2 (stereo not shown) [Example 594, 3-[[7-(5-chloro-3-methyl-2-quinuclidin-3-yloxy-phenyl)thieno[3,2-b]pyridin-2-yl]methyl]-1-(2,2,2-trifluoroethyl)pyrimidine-2,4-dione; 2,2,2-trifluoroacetic acid] |  | < 1000
3 | Cc1cc(Cl)cc(-c2ccnc3cc(CN4C(=O)CCC4=O)sc23)c1OC1CCN(C)CC1 [Example 216, 1-((7-(5-Chloro-3-methyl-2-((I-methylpiperidin-4-yl)oxy)phenyl)thieno[3,2-b]pyridin-2-yl)methyl)pyrrolidine-2,5-dione] | < 1000 | 
4 | Cc1cc(Cl)cc(-c2ncnc3cc(CN4C(=O)C5C(C4=O)C5(C)C)sc23)c1O[C@@H]1C[C@@H]2C[C@H]1N(C)C2 (stereo partly drawn) [Example 390, 3-[[4-[5-chloro-3-methyl-2-[[(1S,4R,5R)-3-methyl-3-azabicyclo[2.2.1]heptan-5-yl]oxy]phenyl]thieno[3,2-d]pyrimidin-6-yl]methyl]-6,6-dimethyl-3-azabicyclo[3.1.0]hexane-2,4-dione dihydrochloride] | < 1000 | 
5 | Cc1cc(Cl)cc(-c2ncnc3cc(Cn4c(=O)ccn(CC(F)(F)F)c4=O)sc23)c1O[C@@H]1CCNC[C@@H]1C [Example 520, 3-[[4-[5-chloro-3-methyl-2-[[(3S,4R)-3-methyl-4-piperidyl]oxy]phenyl]thieno[3,2-d]pyrimidin-6-yl]methyl]-1-(2,2,2-trifluoroethyl)pyrimidine-2,4-dione] |  | < 1000
6 | Cc1cc(Cl)cc(-c2ccnc3cc(Cn4c(=O)ccn(CC(F)(F)F)c4=O)sc23)c1O[C@H]1CNC[C@@H]1C [Example 567, 3-[[7-[5-chloro-3-methyl-2-[(3R,4S)-4-methylpyrrolidin-3-yl]oxy-phenyl]thieno[3,2-b]pyridin-2-yl]methyl]-1-(2,2,2-trifluoroethyl)pyrimidine-2,4-dione] |  | < 1000
7 | Cc1cc(Cl)cc(-c2ccnc3cc(CN4C(=O)CCC4=O)sc23)c1O[C@H]1CC[C@@H](C)NC1 [Example 416, 1-[[7-[5-chloro-3-methyl-2-[[(3S,6R)-6-methyl-3-piperidyl]oxy]phenyl]thieno[3,2-b]pyridin-2-yl]methyl]pyrrolidine-2,5-dione] |  | < 1000
8 | Cc1cc(Cl)cc(-c2ncnc3cc(CN4C(=O)C(C)C(C)C4=O)sc23)c1O[C@@H]1CNC[C@@H]1F (stereo partly drawn) [Example 379, 1-[[4-[5-chloro-2-[(3R,4S)-4-fluoropyrrolidin-3-yl]oxy-3-methyl-phenyl]thieno[3,2-d]pyrimidin-6-yl]methyl]-3,4-dimethyl-pyrrolidine-2,5-dione; 2,2,2-trifluoroacetic acid] | < 1000 | 
9 | Cc1cc(Cl)cc(-c2ccnc3cc(CN4C(=O)CCC4=O)sc23)c1OC1CCNCC1 [Example 210, 1-((7-(5-Chloro-3-methyl-2-(piperidin-4-yloxy)phenyl)thieno[3,2-b]pyridin-2-yl)methyl)pyrrolidine-2,5-dione] | < 1000 | 
10 | CCC(O)c1cc2ncnc(-c3cc(Cl)cc(C)c3OC3CCNCC3)c2s1 (stereo not shown) [Example 181, 1-(4-(5-Chloro-3-methyl-2-(piperidin-4-yloxy)phenyl)thieno[3,2-d]pyrimidin-6-yl)propan-1-ol] | 1000 to 10000 | 
11 | Cc1cc(Cl)cc(-c2ccnc3cc(CN4C(=O)C5C(C4=O)C5(C)C)sc23)c1O[C@@H]1CNC[C@@H]1C(F)F (stereo partly drawn) [Example 389, 3-[[7-[5-chloro-2-[(3S,4S)-4-(difluoromethyl)pyrrolidin-3-yl]oxy-3-methyl-phenyl]thieno[3,2-b]pyridin-2-yl]methyl]-6,6-dimethyl-3-azabicyclo[3.1.0]hexane-2,4-dione dihydrochloride] | < 1000 | 
12 | Cc1cc(Cl)cc(-c2ccnc3cc(Cn4c(=O)ccn(CC(F)(F)F)c4=O)sc23)c1OCCN1CCCCC1 [Example 666, 3-[[7-[5-chloro-3-methyl-2-[2-(1-piperidyl)ethoxy]phenyl]thieno[3,2-b]pyridin-2-yl]methyl]-1-(2,2,2-trifluoroethyl)pyrimidine-2,4-dione] |  | < 1000
13 | Cc1cc(Cl)cc(-c2ncnc3cc(Cn4c(=O)ccn(C(C)C)c4=O)sc23)c1OC1CC2CNC1C2 (stereo not shown) [Example 509, 3-[[4-[2-(3-azabicyclo[2.2.1]heptan-5-yloxy)-5-chloro-3-methyl-phenyl]thieno[3,2-d]pyrimidin-6-yl]methyl]-1-isopropyl-pyrimidine-2,4-dione] |  | < 1000
14 | Cc1cc(Cl)cc(-c2ccnc3cc(Cn4c(=O)ccn(C(C)C)c4=O)sc23)c1O[C@@H]1CNC[C@@H]1C [Example 329, 3-[[7-[5-chloro-3-methyl-2-[(3S,4S)-4-methylpyrrolidin-3-yl]oxy-phenyl]thieno[3,2-b]pyridin-2-yl]methyl]-1-isopropyl-pyrimidine-2,4-dione] | < 1000 | 
15 | Cc1cc(Cl)cc(-c2ccnc3cc(CO)sc23)c1O[C@@H]1CC[C@@H](N)C1 [Example 90, (7-(2-(((1R,3R)-3-Aminocyclopentyl)oxy)-5-chloro-3-methylphenyl)thieno[3,2-b]pyridin-2-yl)methanol] | 1000 to 10000 | 
16 | Cc1cc(Cl)cc(-c2ccnc3cc(Cn4c(=O)ccn(CC(F)(F)F)c4=O)sc23)c1O[C@@H]1CN[C@@H](C)C1 [Example 632, 3-[[7-[5-chloro-3-methyl-2-[(3S,5S)-5-methylpyrrolidin-3-yl]oxy-phenyl]thieno[3,2-b]pyridin-2-yl]methyl]-1-(2,2,2-trifluoroethyl)pyrimidine-2,4-dione] |  | < 1000
17 | Cc1cc(Cl)cc(-c2ccnc3cc(Cn4c(=O)ccn(CC(F)(F)F)c4=O)sc23)c1O[C@H]1CCCNC1 [Example 484, 3-[[7-[5-chloro-3-methyl-2-[[(3S)-3-piperidyl]oxy]phenyl]thieno[3,2-b]pyridin-2-yl]methyl]-1-(2,2,2-trifluoroethyl)pyrimidine-2,4-dione] |  | < 1000
18 | Cc1cc(Cl)cc(-c2ccnc3cc(Cn4c(=O)ccn(C)c4=O)sc23)c1OC1CC2CC1N(C)C2 (stereo not shown) [Example 465] |  | < 1000
19 | CN[C@H]1CC[C@@H](Oc2c(C)cc(Cl)cc2-c2ccnc3cc(CO)sc23)CC1 [Example 247, (7-(5-Chloro-3-methyl-2-(((l s,4s)-4-(methylamino)cyclohexyl)oxy)phenyl)thieno[3,2-b]pyridin-2-yl)methanol] | 10000 to 30000 | 
20 | Cc1cc(Cl)cc(-c2ncnc3cc(Cn4c(=O)ccn(C(C)C)c4=O)sc23)c1O[C@H]1CCCN(C)C1 [Example 512, 3-[[4-[5-chloro-3-methyl-2-[[(3S)-1-methyl-3-piperidyl]oxy]phenyl]thieno[3,2-d]pyrimidin-6-yl]methyl]-1-isopropyl-pyrimidine-2,4-dione] |  | < 1000
21 | Cc1cc(Cl)cc(-c2ccnc3cc(Cn4c(=O)ccn(CC(F)(F)F)c4=O)sc23)c1O[C@@H]1CCCN[C@H]1C [Example 622, 3-[[7-[5-chloro-3-methyl-2-[[(2S,3R)-2-methyl-3-piperidyl]oxy]phenyl]thieno[3,2-b]pyridin-2-yl]methyl]-1-(2,2,2-trifluoroethyl)pyrimidine-2,4-dione; 2,2,2-trifluoroacetic acid] |  | < 1000
22 | Cc1cc(Cl)cc(-c2ccnc3cc(Cn4c(=O)ccn(C)c4=O)sc23)c1O[C@@H]1CCCN[C@@H]1C [Example 468, 3-[[7-[5-chloro-3-methyl-2-[[(2R,3R)-2-methyl-3-piperidyl]oxy]phenyl]thieno[3,2-b]pyridin-2-yl]methyl]-1-methyl-pyrimidine-2,4-dione; 2,2,2-trifluoroacetic acid] |  | < 1000
23 | Cc1cc(Cl)cc(-c2ccnc3cc(CO)sc23)c1OC1CC2(CNC2)C1 [Example 48, (7-(2-((2-Azaspiro[3.3]heptan-6-yl)oxy)-5-chloro-3-methylphenyl)thieno[3,2-b]pyridin-2-yl)methanol] | 10000 to 30000 | 
24 | Cc1cc(Cl)cc(-c2ccnc3cc(Cn4c(=O)ccn(CC(F)(F)F)c4=O)sc23)c1O[C@@H]1CNCC[C@@H]1C [Example 337, 3-[[7-[5-chloro-3-methyl-2-[[(3S,4S)-4-methyl-3-piperidyl]oxy]phenyl]thieno[3,2-b]pyridin-2-yl]methyl]-1-(2,2,2-trifluoroethyl)pyrimidine-2,4-dione] | < 1000 | 
25 | Cc1cc(Cl)cc(-c2ccnc3cc(Cn4c(=O)ccn(C5COC5)c4=O)sc23)c1O[C@H]1CCCNC1 [Example 5, (S)-3-((7-(5-Chloro-3-methyl-2-(piperidin-3-yloxy)phenyl)thieno[3,2-b]pyridin-2-yl)methyl)-1-(oxetan-3-yl)pyrimidine-2,4(1H,3H)-dione] | < 1000 | 
26 | Cc1cc(Cl)cc(-c2ccnc3cc(CN4C(=O)C5CC5C4=O)sc23)c1O[C@@H]1CNC[C@@H]1C (stereo partly drawn) [Example 327, 3-[[7-[5-chloro-3-methyl-2-[(3S,4S)-4-methylpyrrolidin-3-yl]oxy-phenyl]thieno[3,2-b]pyridin-2-yl]methyl]-3-azabicyclo[3.1.0]hexane-2,4-dione] | < 1000 | 
27 | Cc1cc(Cl)cc(-c2ccnc3cc([C@H](C)N4C(=O)C5CC5C4=O)sc23)c1O[C@H]1CCCNC1 (stereo partly drawn) [Example 288, 3-[(1S)-1-[7-[5-chloro-3-methyl-2-[[(3S)-3-piperidyl]oxy]phenyl]thieno[3,2-b]pyridin-2-yl]ethyl]-3-azabicyclo[3.1.0]hexane-2,4-dione; 2,2,2-trifluoroacetic acid] | < 1000 | 
28 | Cc1cc(Cl)cc(-c2ccncc2CCCN2C(=O)CCC2=O)c1OC1CNC[C@@H]1F (stereo partly drawn) [Example 409, 1-[3-[4-[5-chloro-2-[(4S)-4-fluoropyrrolidin-3-yl]oxy-3-methyl-phenyl]-3-pyridyl]propyl]pyrrolidine-2,5-dione; 2,2,2-trifluoroacetic acid] |  | 1000 to 10000
